Test results as given in the PolyMetriX glass transition set.
± gives the standard deviation of the reports.

Structure (SMILES) | glass transition temperature [°C]
*/C=C/c1cc(OCCC(C)CCCC(C)C)c(*)cc1OC (repeat unit) | 54.50
*CCCCCCCCCCCCCCNC(=O)CCCCCCCCCCCCCCCCC(=O)N* (repeat unit) | 48.00
*CCOC(=O)C1CCC(C(=O)O*)CC1 (repeat unit) | 25.00
*CCCCCCCCCCCCOC(=O)NCCCCCCCCCCNC(=O)O* (repeat unit) | 34.00
*c1cccc(OP(=O)(Oc2cccc(-n3c(=O)c4cc5c(=O)n(*)c(=O)c5cc4c3=O)c2)c2ccccc2)c1 (repeat unit) | 191.00
*CC(*)c1ccc(OCC)cc1 (repeat unit) | 86.00
*Nc1ccc(N[Se]*)cc1 (repeat unit) | 55.00
*C(=O)Nc1ccc2c(c1)-c1cc(NC(=O)c3ccc4c(c3)C(=O)N(c3cccc(P(=O)(c5ccccc5)c5cccc(N6C(=O)c7ccc(*)cc7C6=O)c5)c3)C4=O)ccc1C2 (repeat unit) | 248.00
*c1cccc(P(=O)(c2ccc(C(F)(F)F)cc2)c2cccc(-n3c(=O)c4c(-c5cc(C(F)(F)F)cc(C(F)(F)F)c5)c5c(=O)n(*)c(=O)c5c(-c5cc(C(F)(F)F)cc(C(F)(F)F)c5)c4c3=O)c2)c1 (repeat unit) | 311.00
*O[Si](C)(CCC(F)(F)F)CCC(F)(F)CC[Si](*)(C)CCC(F)(F)F (repeat unit) | -38.00
*c1ccc(Oc2ccc(Oc3ccc(P(=O)(c4ccccc4)c4ccc(Oc5ccc(Oc6ccc(-c7nc8cc9sc(*)nc9cc8s7)cc6)cc5)cc4)cc3)cc2)cc1 (repeat unit) | 255.00
*CC(*)c1ccc(C(=O)CCN2CCCCC2)cc1 (repeat unit) | 38.00
*CC(*)C(=O)OCCc1ccccc1 (repeat unit) | -3.00
*CC(*)(C)C(=O)OC(C)C (repeat unit) [Poly(isopropyl methacrylate)] | 83.92 ± 1.5
*CNC(=O)CCCCCCCCC(=O)NCC1COC(*)CO1 (repeat unit) | 73.00
*CC(OCC)C1C(=O)OC(=O)C1* (repeat unit) | 146.00
*CC(*)C(=O)OCC (repeat unit) [Poly(ethyl acrylate) ] | -22 ± 2.1
*Oc1ccc(P(C)(=O)c2ccc(*)cc2)cc1 (repeat unit) | 238.00

Structure (SMILES) | glass transition temperature [°C]
*C(F)C(*)C(F)(F)F (repeat unit) | 87.00
*Cc1ccc(CNC(=O)CCCCCCCCCCCCCCCCC(=O)N*)cc1 (repeat unit) | 75.00
*CC(*)(C)C(=O)Oc1ccc(C#N)cc1 (repeat unit) | 155.00
*c1ccc2c(c1)C(=O)N(c1ccc(N3C(=O)c4ccc(-c5c(-c6ccccc6)c(-c6ccccc6)c(-c6ccc(Oc7ccc(-c8c(-c9ccccc9)c(-c9ccccc9)c(*)c(-c9ccccc9)c8-c8ccccc8)cc7)cc6)c(-c6ccccc6)c5-c5ccccc5)cc4C3=O)cc1)C2=O (repeat unit) | 353.00
*Oc1ccc(OC(=O)CCCCCCCCC(*)=O)cc1 (repeat unit) | 52.80
*C1C(*)C2CC1C(C(=O)OCC1CC3CCC1C3)C2C(=O)OCC1CC2CCC1C2 (repeat unit) | 320.00
*CC(*)(C)C(=O)OCCn1c2ccccc2c2ccccc21 (repeat unit) | 148.00
*C(=O)CCCCCCCCC(=O)N1CC(C)N(*)CC1C (repeat unit) | -60.50
*Nc1ccc(*)cc1C (repeat unit) | -71.40
*CC(*)C(=O)c1ccc(Cl)cc1 (repeat unit) | 63.00
*/C=C/C(C)(C(=O)OC)C(*)C (repeat unit) | 34.00
*CC1CCC(COC(=O)c2ccc(C(=O)O*)cc2)CC1 (repeat unit) | 84.50
*CC(*)(C)C(=O)OCc1ccco1 (repeat unit) | 111.00
*CCCN(*)C(=O)C(F)(F)C(F)(F)C(F)(F)C(F)(F)C(F)(F)C(F)(F)C(F)(F)F (repeat unit) | 25.00
*CC(c1ccccc1)C1C(=O)OC(=O)C1* (repeat unit) | 212.00
*CC(*)c1ccc(COCCO)cc1 (repeat unit) | 46.00
*CC(*)(C)C(=O)NC(C)c1ccccc1 (repeat unit) | 156.50
*NNC(=O)c1ccc(C(*)=O)cc1OCCCCCCCCCC (repeat unit) | 193.00

The next lines start with the values.

glass transition temperature [°C] | Structure (SMILES)
172.00 | *CCCCCCN1C(=O)C(=O)N(c2ccc(Oc3ccc(N4C(=O)C(=O)N(*)C4=O)cc3)cc2)C1=O (repeat unit)
29.00 | *CC(*)(C)C(=O)OCCCCCCCCCCOc1ccc(OC(=O)c2ccc(OC)c(Br)c2)cc1 (repeat unit)
74.00 | *Oc1ccc(C(=O)OCCOC(=O)c2ccc(*)cc2)cc1 (repeat unit)
42.00 | *O[Si](*)(C)CCCOc1ccc(C(=O)OCCOc2ccc(C(=O)OC3CCC4(C)C(=CCC5C4CCC4(C)C(C(C)CCCC(C)C)CCC54)C3)cc2)cc1 (repeat unit)
342.00 | *c1ccc(-c2cnc3cc(S(=O)(=O)c4ccc5nc(*)cnc5c4)ccc3n2)cc1 (repeat unit)
225.00 | *Cc1cc(C)c(CNC(=O)c2ccc(C(=O)N*)cc2)cc1C (repeat unit)
76.00 | *Oc1ccc(/N=C/C=N/c2ccc(OC(=O)Nc3cc(NC(*)=O)ccc3C)cc2)cc1 (repeat unit)
178.00 | *c1cccc(CCCOc2cccc(N3C(=O)c4cccc(-c5ccc6c(c5)C(=O)N(*)C6=O)c4C3=O)c2)c1 (repeat unit)
101.00 | *Oc1ccc(C(CCC)(CCC)c2ccc(OC(*)=O)c(C)c2)cc1C (repeat unit)
134.00 | *Oc1ccc(Oc2ccc(C(=O)c3ccc(*)cc3)cc2)cc1-c1cccc(C(F)(F)F)c1 (repeat unit)
129.00 | *Cc1ccc(C(C)c2ccc(CN3C(=O)c4ccc(Oc5ccc6c(c5)C(=O)N(*)C6=O)cc4C3=O)o2)o1 (repeat unit)
360.00 | *c1ccc(-c2ccc(-c3ccc(-c4cc(-c5ccccc5)c5cc(-c6ccc7nc(*)cc(-c8ccccc8)c7c6)ccc5n4)cc3)cc2)cc1 (repeat unit)
264.00 | *c1ccc(Oc2cccc(-c3cc(-c4ccccc4)cc(-c4cccc(Oc5ccc(-n6c(=O)c7cc8c(=O)n(*)c(=O)c8cc7c6=O)cc5)c4)n3)c2)cc1 (repeat unit)
255.00 | *Oc1ccc(Oc2ccc(NC(=C(C#N)C#N)c3ccc(C(Nc4ccc(*)cc4)=C(C#N)C#N)cc3)cc2)cc1 (repeat unit)
322.00 | *C(=O)Nc1ccc(Oc2ccc(C3(c4ccc(Oc5ccc(NC(=O)c6ccc7c(c6)C(=O)N(c6ccc(N8C(=O)c9ccc(*)cc9C8=O)cc6)C7=O)cc5)cc4)NC(=O)c4ccccc43)cc2)cc1 (repeat unit)
74.00 | *OC(c1ccco1)C(OC(=O)Nc1ccc(Cc2ccc(NC(*)=O)cc2)cc1)c1ccco1 (repeat unit)
90.00 | *CC(O)CN(C)S(=O)(=O)c1cccc(S(=O)(=O)N(C)CC(O)COc2ccc(Sc3ccc(O*)cc3)cc2)c1 (repeat unit)

glass transition temperature [°C] | Structure (SMILES)
72.00 | *Oc1ccc(CC(NC(=O)CCc2ccc(OC(=O)COCC(*)=O)cc2)C(=O)OCC(C)C)cc1 (repeat unit)
195.80 | *Oc1cc(Oc2cccc(NC(=O)c3cc(Oc4ccc(C(=O)O)c(C(=O)Nc5cccc(*)c5)c4)ccc3C(=O)O)c2)ccc1C#N (repeat unit)
190.00 | *CCCCCCN1C(=O)c2ccc(C(=O)Nc3ccc(S(=O)(=O)c4cccc(NC(=O)c5ccc6c(c5)C(=O)N(*)C6=O)c4)cc3)cc2C1=O (repeat unit)
174.00 | *c1ccc2c(c1)C(CCCCCC)(CCCCCC)c1cc(-c3ccc4c(c3)c3cc(*)ccc3n4-c3ccc(OC)cc3)ccc1-2 (repeat unit)
35.00 | *CC(O)COC(=O)CCCCCCC(=O)OCC(O)COc1ccc(C(C)(C)c2ccc(O*)cc2)cc1 (repeat unit)
262.00 | *c1ccc([Si](c2ccccc2)(c2ccccc2)c2ccc(-c3nnc(*)o3)cc2)cc1 (repeat unit)
245.00 | *c1ccc(Oc2ccc(C(=O)c3ccc(Oc4ccc(C5(*)c6ccccc6C(=O)N5C)cc4)cc3)cc2)cc1 (repeat unit)
305.00 | *c1ccc(Oc2ccc(-c3cc(-c4ccccc4)c4cc(Oc5ccc6nc(*)c(-c7ccccc7)c(-c7ccccc7)c6c5)ccc4n3)cc2)cc1 (repeat unit)
22.00 | *Oc1ccc(CC(NC(=O)CCc2ccc(OC(=O)CCCCC(*)=O)cc2)C(=O)OCCCCCCCCCCCC)cc1 (repeat unit)
149.00 | *CCN(CCOC(=O)c1ccc(C(=O)O*)cc1)c1ccc(/N=N/c2ccc(-c3nc4ccc([N+](=O)[O-])cc4n3CC)cc2)cc1 (repeat unit)
254.00 | *CC(=O)Nc1cccc(NC(=O)COc2ccc3ccccc3c2Sc2c(O*)ccc3ccccc23)c1 (repeat unit)
250.00 | *c1ccc2c(c1)C(=O)N(c1ccc(Oc3ccc(N4C(=O)c5ccc(C(*)O)cc5C4=O)cc3)cc1)C2=O (repeat unit)
160.00 | *C(=O)Oc1ccc(OC(=O)c2ccc3c(c2)C(=O)N(c2ccc(Cc4ccc(N5C(=O)c6ccc(*)cc6C5=O)cc4)cc2)C3=O)c(C(C)(C)C)c1 (repeat unit)
259.00 | *c1ccc(Cc2ccc(N3C(=O)c4ccc(Oc5ccc(Oc6ccc7c(c6)C(=O)N(*)C7=O)cc5)cc4C3=O)cc2)cc1 (repeat unit)
49.00 | *C(=O)OCCCCCCCCCCCOC(=O)c1ccc(N2C(=O)c3ccc(*)cc3C2=O)cc1 (repeat unit)
365.00 | *C(=O)c1ccc2c(c1)C(=O)N(c1ccc(-c3ccc(N4C(=O)c5ccc(*)cc5C4=O)c(C)c3)cc1C)C2=O (repeat unit)
